Like-named read-outs stand apart in the source and are kept apart here.
What was measured:
[1] = test system: pulmonary arterial smooth muscle cells; assay: Suppression of proliferation of pulmonary arterial smooth muscle cells (PDGF-BB stimulation, BrdU); type: cell-based; conditions: read-out: Human normal PASMC proliferation suppression (PDGF stimulation_IC50)
Method in brief: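 Test compound (final 3 to 10,000 nM) was added together with BrdU and PDGF-BB (final 10 ng/mL) to healthy human pulmonary artery smooth muscle cells held a day in 0.1% FBS. Proliferation was read after 1 day as anti-BrdU-detected BrdU incorporation.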

PDGFR-β = PDGFR-β (Homo sapiens (Human), UniProt P09619); assay: PDGFR-β tyrosine kinase inhibitory action (HTRF KinEASE-TK); type: biochemical; conditions: PDGFR-β enzyme 1 ng/μL, 30° C. for 30 minutes; read-out: PDGF-β IC50
Method in brief: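 Recombinant PDGFR-β at 1 ng/μL final with TK substrate-3-biotin in a substrate solution containing 0.6 μM ATP; buffer 50 mM HEPES pH 7.0, 5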

[2] = target: TEL-KIT fusion gene transfected cells (Ba/F3) (Homo sapiens, UniProt P10721); assay: Suppression of proliferation of TEL-KIT fusion gene transfected Ba/F3 cells; conditions: read-out: KIT/BaF3 proliferation inhibition (IC50); TEL-KIT expressing Ba/F3 cells, 72 hours, final concentration 0.1 to 10,000 nM;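 note: viable cells quantified via formazan from tetrazolium reduction, inhibition scaled with 0.1% DMSO control as 0% and medium-only blank as 100%, IC50 from two-parameter logistic fit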
Source text: (§3) Fabrication of TEL-PDGFRβ and TEL-KIT Fusion Gene Transfected Cells
(§4) Subsequently, the vectors for gene transfection were introduced using a transfection reagent (FuGENE6, Promega Corporation) into packaging cells derived from a human fetal kidney cell line, PLAT-E, in the logarithmic growth phase. Since the culture supernatant of PLAT-E after the gene transfection contained virus particles for gene transfection, it was collected and used as a medium for gene transfection. The medium for gene transfection was added to a plate coated with RetroNectin and incubated, and the virus particles were allowed to adhere to the plate. Thereafter, the mouse pro-B cell line Ba/F3 in the logarithmic growth phase was seeded onto the plate and infected with the virus to fabricate cells that proliferate in a PDGFRβ or KIT dependent manner.
(§5) The test substance was prepared with dimethyl sulfoxide (DMSO) to 10 mM and diluted with DMSO so as to reach a concentration of 0.0001 to 3 mM. Furthermore, it was diluted by 100 times with distilled water.
(§6) Measurement of Suppression Action Against Proliferation of TEL-PDGFRβ or TEL-KIT Expressing Cells
(§7) The day after TEL-PDGFRβ and TEL-KIT expressing cells were seeded onto 96 well plates, the prepared test substance solution was added thereto with a final concentration being 0.1 to 10,000 nM. After 72 hours, the viable cell count was measured using the amount of formazan generated from the reduction of a tetrazolium salt compound by the mitochondrial dehydrogenase of viable cells as an indicator.
(§8) Based on the amount of formazan in each condition, the suppression rate against cell proliferation was calculated when the amounts of formazan in the negative control (0.1% DMSO solution) and Blank (medium only) were defined as 0% and 100%, respectively. Subsequently, a nonlinear regression analysis with a two parameter logistic model for the log dose and suppression rate against cell proliferation was carried out using the SAS system (SAS Institute Inc.) to estimate the IC50 value.

[3] = target: TEL-PDGFRβ fusion gene transfected cells (Ba/F3) (Homo sapiens, UniProt P09619); assay: Suppression of proliferation of TEL-PDGFRβ fusion gene transfected Ba/F3 cells; type: cell-based; conditions: TEL-PDGFRβ expressing Ba/F3 cells, 72 hours, final concentration 0.1 to 10,000 nM; read-out: PDGFR β/BaF3 proliferation inhibition (IC50)
Source text: (§1) 2. Preparation of Test Substance
(§2) 4. Analysis of Measurement Results

[4] = test system: TEL-PDGFRβ fusion gene transfected cells (Ba/F3); assay: as above; type: cell-based, human; conditions: TEL-PDGFRβ expressing Ba/F3 cells, 72 hours, final concentration 0.1 to 10,000 nM; read-out: PDGFR β/BaF3 proliferation inhibition (IC50)
Source text: as §1, §2

[5] = target: TEL-KIT fusion gene transfected cells (Ba/F3); assay: Suppression of proliferation of TEL-KIT fusion gene transfected Ba/F3 cells; conditions: read-out: KIT/BaF3 proliferation inhibition (IC50); TEL-KIT expressing Ba/F3 cells, 72 hours, final concentration 0.1 to 10,000 nM;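 note: viable cells quantified via formazan from tetrazolium reduction, inhibition scaled with 0.1% DMSO control as 0% and medium-only blank as 100%, IC50 from two-parameter logistic fit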
Source text: as §3, §4, §5, §6, §7, §8

[6] = PASMC, 24 h, healthy human derived pulmonary arterial smooth muscle cells, human PDGF-BB 10 ng/mL stimulation, BrdU uptake after 1 day, test substance final concentration 3 to 10,000 nM
[7] = healthy human derived pulmonary arterial smooth muscle cells, human PDGF-BB 10 ng/mL stimulation, BrdU uptake after 1 day, test substance final concentration 3 to 10,000 nM
[8] = PASMC, human PDGF-BB 10 ng/mL, BrdU uptake, final concentration 3 to 10,000 nM

Chain of PDGFR-β (P09619 33-1106): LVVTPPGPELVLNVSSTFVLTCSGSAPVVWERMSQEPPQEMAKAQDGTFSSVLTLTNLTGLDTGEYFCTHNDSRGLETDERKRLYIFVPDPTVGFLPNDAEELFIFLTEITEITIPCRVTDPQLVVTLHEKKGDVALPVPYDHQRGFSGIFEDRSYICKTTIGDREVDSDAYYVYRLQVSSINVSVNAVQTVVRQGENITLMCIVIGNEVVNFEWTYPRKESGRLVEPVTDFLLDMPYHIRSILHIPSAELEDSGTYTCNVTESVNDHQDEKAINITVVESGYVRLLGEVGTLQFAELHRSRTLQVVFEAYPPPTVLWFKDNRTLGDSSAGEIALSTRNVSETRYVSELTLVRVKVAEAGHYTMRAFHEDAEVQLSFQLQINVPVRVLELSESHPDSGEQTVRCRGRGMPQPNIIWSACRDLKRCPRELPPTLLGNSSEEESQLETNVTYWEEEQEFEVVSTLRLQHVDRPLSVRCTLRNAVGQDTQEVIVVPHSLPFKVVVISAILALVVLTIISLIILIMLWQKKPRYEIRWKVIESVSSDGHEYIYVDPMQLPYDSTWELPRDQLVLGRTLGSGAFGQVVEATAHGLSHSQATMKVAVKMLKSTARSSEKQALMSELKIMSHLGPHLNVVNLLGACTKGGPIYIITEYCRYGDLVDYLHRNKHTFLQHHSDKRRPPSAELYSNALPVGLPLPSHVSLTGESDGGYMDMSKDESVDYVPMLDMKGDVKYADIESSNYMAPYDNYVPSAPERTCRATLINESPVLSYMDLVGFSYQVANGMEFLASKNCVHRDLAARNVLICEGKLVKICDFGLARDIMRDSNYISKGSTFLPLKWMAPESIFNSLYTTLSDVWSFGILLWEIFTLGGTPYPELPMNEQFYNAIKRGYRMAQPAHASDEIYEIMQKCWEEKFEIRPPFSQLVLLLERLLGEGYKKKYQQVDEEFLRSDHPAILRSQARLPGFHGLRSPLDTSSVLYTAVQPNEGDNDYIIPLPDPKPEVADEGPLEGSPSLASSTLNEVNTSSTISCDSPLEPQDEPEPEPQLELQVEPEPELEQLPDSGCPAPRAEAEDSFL
Chain of TEL-PDGFRβ fusion gene transfected cells (Ba/F3) (Homo sapiens, UniProt P09619) (P09619 33-1106 limits assumed, change not shown): as the sequence (P09619 33-1106) above
Chain of TEL-KIT fusion gene transfected cells (Ba/F3) (Homo sapiens, UniProt P10721) (P10721 26-976 limits assumed, change not shown): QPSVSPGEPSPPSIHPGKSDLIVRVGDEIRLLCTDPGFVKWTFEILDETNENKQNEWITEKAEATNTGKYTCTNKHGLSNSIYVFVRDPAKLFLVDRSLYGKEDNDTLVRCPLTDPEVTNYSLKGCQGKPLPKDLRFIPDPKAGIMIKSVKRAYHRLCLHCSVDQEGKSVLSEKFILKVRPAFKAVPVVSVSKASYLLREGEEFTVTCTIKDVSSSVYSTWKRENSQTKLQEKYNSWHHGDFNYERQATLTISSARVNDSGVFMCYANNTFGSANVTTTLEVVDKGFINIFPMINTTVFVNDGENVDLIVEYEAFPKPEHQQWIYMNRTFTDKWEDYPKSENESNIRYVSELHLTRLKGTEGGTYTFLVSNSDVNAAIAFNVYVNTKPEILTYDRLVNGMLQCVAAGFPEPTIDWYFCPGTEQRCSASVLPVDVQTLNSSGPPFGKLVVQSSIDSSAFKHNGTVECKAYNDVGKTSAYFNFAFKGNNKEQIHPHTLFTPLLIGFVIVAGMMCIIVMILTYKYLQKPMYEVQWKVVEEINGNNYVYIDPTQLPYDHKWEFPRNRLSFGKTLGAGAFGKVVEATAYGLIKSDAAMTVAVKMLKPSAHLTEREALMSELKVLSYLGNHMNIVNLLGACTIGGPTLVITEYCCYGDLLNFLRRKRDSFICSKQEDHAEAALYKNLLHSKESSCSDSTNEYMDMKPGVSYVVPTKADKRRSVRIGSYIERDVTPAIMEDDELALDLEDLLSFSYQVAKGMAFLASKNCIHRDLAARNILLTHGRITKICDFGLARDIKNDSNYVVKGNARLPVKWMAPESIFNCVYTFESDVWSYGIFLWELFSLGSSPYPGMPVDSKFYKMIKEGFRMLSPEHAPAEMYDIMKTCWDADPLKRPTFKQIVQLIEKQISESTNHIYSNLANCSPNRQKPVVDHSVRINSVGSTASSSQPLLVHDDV
Chain of TEL-KIT fusion gene transfected cells (Ba/F3) (P10721 26-976 limits assumed, change not shown): as above

Compound	IC50 [1, 6]	IC50 (PDGFR-β)	IC50 [2]	IC50 [3]	IC50 [1, 7]	IC50 [4]	IC50 [5]	IC50 [1, 8]
Cc1ccc(C(=O)N[C@H]2CCCC[C@@H]2O)cc1C#Cc1cncc(-c2ccccc2)c1 [Example 60, N-[(1S,2S)-2-hydroxycyclohexyl]-4-methyl-3-[(5-phenylpyridin-3-yl)ethynyl]benzamide]	26 nM	46 nM	410 nM	5.9 nM	–	–	–	–
Cc1ccc(C(=O)N[C@H]2CCCC[C@@H]2O)cc1/C=C/c1cncc(-c2ccccc2)c1 [Example 173, N-[(1S,2S)-2-hydroxycyclohexyl]-4-methyl-3-[(E)-2-(5-phenylpyridin-3-yl)ethenyl]benzamide]	–	54 nM	700 nM	4.6 nM	–	–	–	–
3-{[([3,3′-bipyridin]-5-yl)methyl]amino}-N-[(1S,2S)-2-hydroxycyclohexyl]-4-methylbenzamide [Example 93]	–	360 nM	6200 nM	45 nM	260 nM	–	–	–
Cc1ccc(CNc2cncc(-c3ncccn3)c2)cc1NC(=O)N[C@@H]1CCCC[C@@H]1O [Example 163, N-[(1R,2S)-2-hydroxycyclohexyl]-N′-[2-methyl-5-({[5-(pyrimidin-2-yl)pyridin-3-yl]amino}methyl)phenyl]urea]	–	260 nM	2600 nM	–	150 nM	200 nM	–	–
Cc1c(F)cc(C(=O)N[C@H]2CCCC[C@@H]2O)cc1NC(=O)c1cncc(OCC2CC2)c1 [Example 46, 5-(cyclopropylmethoxy)-N-(3-fluoro-5-{[(1S,2S)-2-hydroxycyclohexyl]carbamoyl}-2-methylphenyl)pyridine-3-carboxamide]	370 nM	77 nM	–	–	–	17 nM	410 nM	–
Cc1ccc(NC(=O)N[C@@H]2CCCC[C@@H]2O)cc1CNc1cncc(-c2ncccn2)c1 [Example 162, N-[(1R,2S)-2-hydroxycyclohexyl]-N′-[4-methyl-3-({[5-(pyrimidin-2-yl)pyridin-3-yl]amino}methyl)phenyl]urea]	36 nM	2.6 nM	–	–	–	1.1 nM	270 nM	–
Cc1ccc(C(=O)N[C@H]2CCCC[C@@H]2O)cc1NC(=O)c1cncc(-c2ccccc2C)c1 [Example 12, N-(5-{[(1S,2S)-2-hydroxycyclohexyl]carbamoyl}-2-methylphenyl)-5-(2-methylphenyl)pyridine-3-carboxamide]	–	170 nM	–	–	–	35 nM	800 nM	65 nM
Cc1ccc(C(=O)N[C@H]2CCCC[C@@H]2O)cc1NC(=O)c1cncc(-c2cccc(F)c2F)c1 [Example 30, 5-(2,3-difluorophenyl)-N-(5-{[(1S,2S)-2-hydroxycyclohexyl]carbamoyl}-2-methylphenyl)pyridine-3-carboxamide]	52 nM	44 nM	–	–	–	22 nM	1300 nM	–
Cc1ccc(C(=O)N[C@@H](CO)[C@@H](O)c2ccccc2)cc1Nc1ccnc(-c2cncc3ccccc23)n1 [Example 80, N-[(1S,2S)-1,3-dihydroxy-1-phenylpropan-2-yl]-3-{[2-(isoquinolin-4-yl)pyrimidin-4-yl]amino}-4-methylbenzamide]	280 nM	120 nM	–	–	–	80 nM	> 10000 nM	–
Cc1ccc(C(=O)N[C@H]2CCCC[C@@H]2O)cc1N[C@@H](C)c1cncc(-c2ccccn2)c1 [Example 89, 3-{[(1S)-1-([2,3′-bipyridin]-5′-yl)ethyl]amino}-N-[(1S,2S)-2-hydroxycyclohexyl]-4-methylbenzamide]	190 nM	78 nM	–	–	–	20 nM	610 nM	–
O=C(Nc1ccc(F)c(CNc2cncc(-c3ncccn3)c2)c1)N[C@@H]1CCCC[C@@H]1O [Example 161, N-[4-fluoro-3-({[5-(pyrimidin-2-yl)pyridin-3-yl]amino}methyl)phenyl]-N′-[(1R,2S)-2-hydroxycyclohexyl]urea]	110 nM	16 nM	–	–	–	4.8 nM	> 10000 nM	–
Cc1ccc(C(=O)N[C@H]2CCCC[C@@H]2O)cc1NCc1cncc(-c2ccccc2)c1 [Example 92, N-[(1S,2S)-2-hydroxycyclohexyl]-4-methyl-3-{[(5-phenylpyridin-3-yl)methyl]amino}benzamide]	66 nM	46 nM	–	–	–	20 nM	1400 nM	–
Cc1ccc(C(=O)N[C@H]2CCCC[C@@H]2O)cc1NCc1cncc(-c2ccsc2)c1 [Example 103, N-[(1S,2S)-2-hydroxycyclohexyl]-4-methyl-3-({[5-(thiophen-3-yl)pyridin-3-yl]methyl}amino)benzamide]	40 nM	50 nM	–	–	–	4.1 nM	2500 nM	–
Cc1ccc(C(=O)N[C@H]2CCCC[C@@H]2O)cc1NCc1cncc(-c2cccs2)c1 [Example 102, N-[(1S,2S)-2-hydroxycyclohexyl]-4-methyl-3-({[5-(thiophen-2-yl)pyridin-3-yl]methyl}amino)benzamide]	30 nM	23 nM	–	–	–	2 nM	620 nM	–
COc1ccc(-c2cncc(NCc3cccc(NC(=O)N[C@@H]4CCCC[C@@H]4O)c3)n2)cc1OC [Example 158, N-[3-({[6-(3,4-dimethoxyphenyl)pyrazin-2-yl]amino}methyl)phenyl]-N′-[(1R,2S)-2-hydroxycyclohexyl]urea]	22 nM	26 nM	–	–	–	41 nM	3000 nM	–
Cc1ccc(C(=O)N[C@H]2CCCC[C@@H]2O)cc1NC(=O)c1cnc(-c2ccccc2)o1 [Example 5, N-(5-{[(1S,2S)-2-hydroxycyclohexyl]carbamoyl}-2-methylphenyl)-2-phenyl-1,3-oxazole-5-carboxamide]	–	6.1 nM	–	–	–	5.8 nM	170 nM	48 nM
Cc1ccc(C(=O)N[C@H]2CCCC[C@@H]2O)cc1OCc1cncc(-c2ncccn2)c1 [Example 166, N-[(1S,2S)-2-hydroxycyclohexyl]-4-methyl-3-{[5-(pyrimidin-2-yl)pyridin-3-yl]methoxy}benzamide]	65 nM	49 nM	–	–	–	2.5 nM	1200 nM	–
O=C(N[C@H]1CCCC[C@@H]1O)c1ccc(Cl)c(C#Cc2cncc(-c3ncccn3)c2)c1 [Example 64, 4-chloro-N-[(1S,2S)-2-hydroxycyclohexyl]-3-{[5-(pyrimidin-2-yl)pyridin-3-yl]ethynyl}benzamide]	92 nM	260 nM	–	–	–	5.9 nM	230 nM	–
Cc1ccc(C(=O)N[C@H]2CCCC[C@@H]2O)cc1NC(=O)c1cncc(-c2cc(F)cc(F)c2)c1 [Example 32, 5-(3,5-difluorophenyl)-N-(5-{[(1S,2S)-2-hydroxycyclohexyl]carbamoyl}-2-methylphenyl)pyridine-3-carboxamide]	190 nM	47 nM	–	–	–	17 nM	920 nM	–
Cc1ccc(C(=O)N[C@H]2CCCC[C@@H]2O)cc1C#Cc1cncc(-c2ccccc2)n1 [Example 75, N-[(1S,2S)-2-hydroxycyclohexyl]-4-methyl-3-[(6-phenylpyrazin-2-yl)ethynyl]benzamide]	13 nM	15 nM	300 nM	4.5 nM	–	–	–	–
Cc1ccc(C(=O)N[C@H]2CCCC[C@@H]2O)cc1NCc1cncc(Br)c1 [Example 91, 3-{[(5-bromopyridin-3-yl)methyl]amino}-N-[(1S,2S)-2-hydroxycyclohexyl]-4-methylbenzamide]	150 nM	150 nM	–	–	–	26 nM	2700 nM	–
Cc1ccc(C(=O)N[C@H]2CCCC[C@@H]2O)cc1NC(=O)c1cncc(-c2cccc(F)c2)c1 [Example 20, 5-(3-fluorophenyl)-N-(5-{[(1S,2S)-2-hydroxycyclohexyl]carbamoyl}-2-methylphenyl)pyridine-3-carboxamide]	–	13 nM	–	–	–	24 nM	900 nM	77 nM
CC(C)=Cc1cncc(C(=O)Nc2cc(C(=O)N[C@H]3CCCC[C@@H]3O)ccc2C)c1 [Example 23, N-(5-{[(1S,2S)-2-hydroxycyclohexyl]carbamoyl}-2-methylphenyl)-5-(2-methylprop-1-en-1-yl)pyridine-3-carboxamide]	–	26 nM	–	–	–	4.9 nM	620 nM	64 nM
Cc1ccc(C(=O)N[C@H]2CCCC[C@@H]2O)cc1C#Cc1cncc(-c2ncccn2)c1 [Example 62, N-[(1S,2S)-2-hydroxycyclohexyl]-4-methyl-3-{[5-(pyrimidin-2-yl)pyridin-3-yl]ethynyl}benzamide]	34 nM	6.5 nM	–	–	–	1.7 nM	87 nM	–

— US12509424B2, “Compound and composition as PDGF receptor kinase inhibitor” (NIPPON SHINYAKU CO., LTD., priority 2019, dated 2025)
